Test results from ChEMBL document CHEMBL1201862, “PubChem BioAssay data set” (2004).
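Where inhibition never reached the appropriate level, the endpoint shown equals the highest concentration tested. Otherwise, values were interpolated linearly from a five-concentration, 48-hour dose response in 96-well plates. Here, GI50 denotes the concentration required for 50% inhibition of growth.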 Calls of active or inactive are those of the source. No stated cut-off is given here; in the data, active = GI50 up to about 1.1 µM and inactive = higher.

How the values were obtained:
Assay in all cases: inhibition of tumour cell growth, NCI panel, 48 h
[1] = system: SNB-19
[2] = system: OVCAR-3
[3] = system: DU-145
[4] = system: KM12
[5] = system: COLO 205
[6] = system: LOX IMVI
[7] = system: HOP-92
[8] = system: PC-3
[9] = system: NCI-H460
[10] = system: SK-MEL-28
[11] = system: ACHN
[12] = system: A549
[13] = system: UACC-62
[14] = system: TK-10
[15] = system: EKVX
[16] = system: MDA-MB-231
[17] = system: HOP-62
[18] = system: NCI/ADR-RES
[19] = system: NCI-H522
[20] = system: NCI-H226
[21] = system: NCI-H23
[22] = system: CAKI-1
[23] = system: A498
[24] = system: M14
[25] = system: UACC-257
[26] = system: MCF7
[27] = system: MOLT-4
[28] = system: MDA-MB-435
[29] = system: HCT-15
[30] = system: IGROV-1
[31] = system: K562
[32] = system: SF-268
[33] = system: OVCAR-4
[34] = system: SR
[35] = system: HCC 2998
[36] = system: U-251
[37] = system: RXF 393
[38] = system: HCT-116
[39] = system: SNB-75
[40] = system: HT-29
[41] = system: Malme-3M
[42] = system: SF-295
[43] = system: OVCAR-5
[44] = system: 786-0
[45] = system: SN12C
[46] = system: SK-MEL-2
[47] = system: SK-OV-3
[48] = system: OVCAR-8
[49] = system: SF-539
[50] = system: SK-MEL-5
[51] = system: MDA-N
[52] = system: Hs-578T
[53] = system: T47D
[54] = system: SW-620
[55] = system: CCRF-CEM
[56] = system: RPMI-8226
[57] = system: UO-31
[58] = system: HL-60

COc1cc2c(cc1OC)C1Cc3ccccc3CN1CCC2 (configuration not stated)
GI50 [1]: > 100 µM (inactive) | GI50 [2]: > 100 µM (inactive) | GI50 [3]: > 100 µM (inactive) | GI50 [4]: > 100 µM (inactive) | GI50 [5]: > 100 µM (inactive) | GI50 [6]: > 100 µM (inactive) | GI50 [7]: 92.9 µM (inactive) | GI50 [8]: > 100 µM (inactive) | GI50 [9]: > 100 µM (inactive) | GI50 [10]: > 100 µM (inactive) | GI50 [11]: > 100 µM (inactive) | GI50 [12]: > 100 µM (inactive) | GI50 [13]: > 100 µM (inactive) | GI50 [14]: > 100 µM (inactive) | GI50 [15]: > 100 µM (inactive) | GI50 [16]: > 100 µM (inactive) | GI50 [17]: > 100 µM (inactive) | GI50 [18]: > 100 µM (inactive) | GI50 [19]: > 100 µM (inactive) | GI50 [20]: 90.6 µM (inactive) | GI50 [21]: > 100 µM (inactive) | GI50 [22]: > 100 µM (inactive) | GI50 [23]: 97.7 µM (inactive) | GI50 [24]: 93.5 µM (inactive) | GI50 [25]: > 100 µM (inactive) | GI50 [26]: > 100 µM (inactive) | GI50 [27]: 67.6 µM (inactive) | GI50 [28]: 47.6 µM (inactive) | GI50 [29]: > 100 µM | GI50 [30]: > 100 µM (inactive) | GI50 [31]: 50 µM (inactive) | GI50 [32]: > 100 µM (inactive) | GI50 [33]: 88.3 µM (inactive) | GI50 [34]: > 100 µM (inactive) | GI50 [35]: > 100 µM (inactive) | GI50 [36]: > 100 µM (inactive) | GI50 [37]: > 100 µM (inactive) | GI50 [38]: 91.6 µM (inactive) | GI50 [39]: 37.6 µM (inactive) | GI50 [40]: 66.8 µM (inactive) | GI50 [41]: > 100 µM (inactive) | GI50 [42]: > 100 µM (inactive) | GI50 [43]: > 100 µM (inactive) | GI50 [44]: > 100 µM (inactive) | GI50 [45]: > 100 µM (inactive) | GI50 [46]: > 100 µM (inactive) | GI50 [47]: > 100 µM (inactive) | GI50 [48]: > 100 µM (inactive) | GI50 [49]: > 100 µM (inactive) | GI50 [50]: > 100 µM (inactive) | GI50 [51]: 45 µM (inactive) | GI50 [52]: 93.1 µM (inactive) | GI50 [53]: 63.7 µM (inactive) | GI50 [54]: > 100 µM (inactive) | GI50 [55]: 46.9 µM (inactive)

N#Cc1c(N2CCCC2)nsc1Nc1ccccc1
GI50 [1]: > 100 µM (inactive) | GI50 [3]: > 100 µM (inactive) | GI50 [4]: > 100 µM (inactive) | GI50 [5]: > 100 µM (inactive) | GI50 [6]: > 100 µM (inactive) | GI50 [7]: > 100 µM (inactive) | GI50 [8]: > 100 µM (inactive) | GI50 [9]: > 100 µM (inactive) | GI50 [10]: > 100 µM (inactive) | GI50 [11]: > 100 µM (inactive) | GI50 [12]: > 100 µM (inactive) | GI50 [14]: > 100 µM (inactive) | GI50 [56]: > 100 µM (inactive) | GI50 [15]: > 100 µM (inactive) | GI50 [57]: > 100 µM (inactive) | GI50 [16]: > 100 µM (inactive) | GI50 [18]: > 100 µM (inactive) | GI50 [20]: > 100 µM (inactive) | GI50 [21]: > 100 µM (inactive) | GI50 [22]: > 10 µM (inactive) | GI50 [23]: > 100 µM (inactive) | GI50 [24]: > 100 µM (inactive) | GI50 [25]: > 100 µM (inactive) | GI50 [27]: > 100 µM (inactive) | GI50 [29]: > 100 µM | GI50 [30]: > 100 µM (inactive) | GI50 [31]: > 100 µM (inactive) | GI50 [32]: > 100 µM (inactive) | GI50 [33]: > 100 µM (inactive) | GI50 [34]: > 100 µM (inactive) | GI50 [35]: > 100 µM (inactive) | GI50 [37]: > 100 µM (inactive) | GI50 [38]: > 100 µM (inactive) | GI50 [39]: > 100 µM (inactive) | GI50 [40]: > 100 µM (inactive) | GI50 [41]: > 100 µM (inactive) | GI50 [42]: > 100 µM (inactive) | GI50 [43]: > 100 µM (inactive) | GI50 [44]: > 100 µM (inactive) | GI50 [45]: > 100 µM (inactive) | GI50 [46]: > 100 µM (inactive) | GI50 [58]: > 100 µM (inactive) | GI50 [48]: > 100 µM (inactive) | GI50 [49]: > 100 µM (inactive) | GI50 [50]: > 100 µM (inactive) | GI50 [51]: > 100 µM (inactive) | GI50 [52]: > 100 µM (inactive) | GI50 [53]: > 100 µM (inactive) | GI50 [54]: > 100 µM (inactive) | GI50 [55]: > 100 µM (inactive)

COC1(C(C)(C)C)C=C(C(C)(C)C)P(=O)(O)O1 (configuration not stated)
GI50 [1]: > 100 µM (inactive) | GI50 [2]: > 100 µM (inactive) | GI50 [3]: > 100 µM (inactive) | GI50 [4]: > 100 µM (inactive) | GI50 [5]: > 100 µM (inactive) | GI50 [6]: > 100 µM (inactive) | GI50 [7]: > 100 µM (inactive) | GI50 [8]: > 100 µM (inactive) | GI50 [9]: > 100 µM (inactive) | GI50 [10]: > 100 µM (inactive) | GI50 [11]: > 100 µM (inactive) | GI50 [12]: > 100 µM (inactive) | GI50 [13]: > 100 µM (inactive) | GI50 [14]: > 100 µM (inactive) | GI50 [56]: > 100 µM (inactive) | GI50 [15]: > 100 µM (inactive) | GI50 [17]: > 100 µM (inactive) | GI50 [18]: > 100 µM (inactive) | GI50 [19]: > 100 µM (inactive) | GI50 [21]: > 100 µM (inactive) | GI50 [22]: > 100 µM (inactive) | GI50 [23]: > 100 µM (inactive) | GI50 [24]: > 100 µM (inactive) | GI50 [25]: > 100 µM (inactive) | GI50 [26]: > 100 µM (inactive) | GI50 [28]: > 100 µM (inactive) | GI50 [29]: > 100 µM | GI50 [30]: > 100 µM (inactive) | GI50 [31]: > 100 µM (inactive) | GI50 [32]: > 100 µM (inactive) | GI50 [33]: > 100 µM (inactive) | GI50 [34]: > 100 µM (inactive) | GI50 [35]: 15.7 µM (inactive) | GI50 [36]: > 100 µM (inactive) | GI50 [38]: > 100 µM (inactive) | GI50 [39]: > 100 µM (inactive) | GI50 [40]: > 100 µM (inactive) | GI50 [41]: > 100 µM (inactive) | GI50 [42]: > 100 µM (inactive) | GI50 [43]: > 100 µM (inactive) | GI50 [44]: > 100 µM (inactive) | GI50 [45]: > 100 µM (inactive) | GI50 [46]: > 100 µM (inactive) | GI50 [58]: > 100 µM (inactive) | GI50 [47]: > 100 µM (inactive) | GI50 [48]: > 100 µM (inactive) | GI50 [49]: > 100 µM (inactive) | GI50 [50]: > 100 µM (inactive) | GI50 [51]: > 100 µM (inactive) | GI50 [52]: > 100 µM (inactive) | GI50 [53]: 1.36 µM (inactive) | GI50 [54]: > 100 µM (inactive)
